{
  "source": "ChEMBL document CHEMBL1759870",
  "about": "“Identification, structural properties and chelating capacity of miltipolone as a broad-spectrum inhibitor to cancer cells” (Eur J Med Chem, 2011)",
  "key": {"MCF7 [1]": {"system": "MCF7", "assay": "Antiproliferative activity against human MCF7 cells at 2 uM after 96 hrs by MTT assay in presence of 1 uM of ferrous ion", "assay_type": "functional, cell-based"}, "Jurkat [2]": {"system": "Jurkat", "assay": "Antiproliferative activity against human Jurkat cells at 2 uM after 96 hrs by MTT assay in presence of 1 uM of ferrous ion", "assay_type": "functional, cell-based"}, "A-375 [3]": {"system": "A-375", "assay": "Antiproliferative activity against human A375 cells at 2 uM after 96 hrs by MTT assay in presence of 1 uM of ferrous ion", "assay_type": "functional, cell-based"}, "NCI-N87 [4]": {"system": "NCI-N87", "assay": "Antiproliferative activity against human NCI-N87 cells at 2 uM after 96 hrs by MTT assay in presence of 1 uM of ferrous ion", "assay_type": "functional, cell-based"}, "PANC-1 [5]": {"system": "PANC-1", "assay": "Antiproliferative activity against human PANC1 cells at 2 uM after 96 hrs by MTT assay in presence of 1 uM of ferrous ion", "assay_type": "functional, cell-based"}, "HT-1080 [6]": {"system": "HT-1080", "assay": "Antiproliferative activity against human HT1080 cells at 2 uM after 96 hrs by MTT assay in presence of 1 uM of ferrous ion", "assay_type": "functional, cell-based"}, "HeLa [7]": {"system": "HeLa", "assay": "Antiproliferative activity against human HeLa cells at 2 uM after 96 hrs by MTT assay in presence of 1 uM of ferrous ion", "assay_type": "functional, cell-based"}, "HepG2 [8]": {"system": "HepG2", "assay": "Antiproliferative activity against human HepG2 cells at 2 uM after 96 hrs by MTT assay in presence of 1 uM of ferrous ion", "assay_type": "functional, cell-based"}, "A549 [9]": {"system": "A549", "assay": "Antiproliferative activity against human A549 cells at 2 uM after 96 hrs by MTT assay in presence of 1 uM of ferrous ion", "assay_type": "functional, cell-based"}, "HUVEC": {"system": "HUVEC", "assay": "Antiproliferative activity against human HUVEC cells after 96 hrs by MTT assay", "assay_type": "cell-based"}, "A549 [10]": {"system": "A549", "assay": "Antiproliferative activity against human A549 cells after 96 hrs by MTT assay", "assay_type": "functional, cell-based", "conditions": "A549, 96 h"}, "Bel-7402 [11]": {"system": "Bel-7402", "assay": "Antiproliferative activity against human Bel7402 cells after 96 hrs by MTT assay", "assay_type": "functional, cell-based", "conditions": "Bel-7402, 96 h"}, "HepG2 [12]": {"system": "HepG2", "assay": "Antiproliferative activity against human HepG2 cells after 96 hrs by MTT assay", "assay_type": "functional, cell-based", "conditions": "HepG2, 96 h"}, "HeLa [13]": {"system": "HeLa", "assay": "Antiproliferative activity against human HeLa cells after 96 hrs by MTT assay", "assay_type": "functional, cell-based"}, "MCF7 [14]": {"system": "MCF7", "assay": "Antiproliferative activity against human MCF7 cells after 96 hrs by MTT assay", "assay_type": "functional, cell-based", "conditions": "MCF7, 96 h"}, "Jurkat [15]": {"system": "Jurkat", "assay": "Antiproliferative activity against human Jurkat cells after 96 hrs by MTT assay", "assay_type": "functional, cell-based"}, "HT-1080 [16]": {"system": "HT-1080", "assay": "Antiproliferative activity against human HT1080 cells after 96 hrs by MTT assay", "assay_type": "functional, cell-based", "conditions": "HT-1080, 96 h"}, "A-375 [17]": {"system": "A-375", "assay": "Antiproliferative activity against human A375 cells after 96 hrs by MTT assay", "assay_type": "functional, cell-based", "conditions": "A-375, 96 h"}, "NCI-N87 [18]": {"system": "NCI-N87", "assay": "Antiproliferative activity against human NCI-N87 cells after 96 hrs by MTT assay", "assay_type": "functional, cell-based", "conditions": "NCI-N87, 96 h"}, "PANC-1 [19]": {"system": "PANC-1", "assay": "Antiproliferative activity against human PANC1 cells after 96 hrs by MTT assay", "assay_type": "functional, cell-based", "conditions": "PANC-1, 96 h"}, "[20]": {"assay": "Metal chelating activity of the compound assessed as ferrous ion complex formation in doble-distiled water by UV-vis spectrometry", "assay_type": "functional"}, "[21]": {"assay": "Metal chelating activity of the compound assessed as ferric ion complex formation in doble-distiled water by UV-vis spectrometry", "assay_type": "functional"}, "[22]": {"assay": "Metal chelating activity of the compound assessed as cobalt complex formation in doble-distiled water by UV-vis spectrometry", "assay_type": "functional"}, "[23]": {"assay": "Metal chelating activity of the compound assessed as zinc complex formation in doble-distiled water by UV-vis spectrometry", "assay_type": "functional"}, "[24]": {"assay": "Metal chelating activity of the compound assessed as manganese complex formation in doble-distiled water by UV-vis spectrometry", "assay_type": "functional"}, "A549 [25]": {"system": "A549", "assay": "Antiproliferative activity against human A549 cells at 2 uM after 96 hrs by MTT assay in presence of ferrous ion", "assay_type": "functional, cell-based"}, "Bel-7402 [26]": {"system": "Bel-7402", "assay": "Antiproliferative activity against human Bel7402 cells at 2 uM after 96 hrs by MTT assay in presence of ferrous ion", "assay_type": "functional, cell-based"}, "HepG2 [27]": {"system": "HepG2", "assay": "Antiproliferative activity against human HepG2 cells at 2 uM after 96 hrs by MTT assay in presence of ferrous ion", "assay_type": "functional, cell-based"}, "HeLa [28]": {"system": "HeLa", "assay": "Antiproliferative activity against human HeLa cells at 2 uM after 96 hrs by MTT assay in presence of ferrous ion", "assay_type": "functional, cell-based"}, "MCF7 [29]": {"system": "MCF7", "assay": "Antiproliferative activity against human MCF7 cells at 2 uM after 96 hrs by MTT assay in presence of ferrous ion", "assay_type": "functional, cell-based"}, "Jurkat [30]": {"system": "Jurkat", "assay": "Antiproliferative activity against human Jurkat cells at 2 uM after 96 hrs by MTT assay in presence of ferrous ion", "assay_type": "functional, cell-based"}, "HT-1080 [31]": {"system": "HT-1080", "assay": "Antiproliferative activity against human HT1080 cells at 2 uM after 96 hrs by MTT assay in presence of ferrous ion", "assay_type": "functional, cell-based"}, "A-375 [32]": {"system": "A-375", "assay": "Antiproliferative activity against human A375 cells at 2 uM after 96 hrs by MTT assay in presence of ferrous ion", "assay_type": "functional, cell-based"}, "NCI-N87 [33]": {"system": "NCI-N87", "assay": "Antiproliferative activity against human NCI-N87 cells at 2 uM after 96 hrs by MTT assay in presence of ferrous ion", "assay_type": "functional, cell-based"}, "PANC-1 [34]": {"system": "PANC-1", "assay": "Antiproliferative activity against human PANC1 cells at 2 uM after 96 hrs by MTT assay in presence of ferrous ion", "assay_type": "functional, cell-based"}, "A549 [35]": {"system": "A549", "assay": "Antiproliferative activity against human A549 cells at 2 uM after 96 hrs by MTT assay in presence of ferric ion", "assay_type": "functional, cell-based"}, "Bel-7402 [36]": {"system": "Bel-7402", "assay": "Antiproliferative activity against human Bel7402 cells at 2 uM after 96 hrs by MTT assay in presence of ferric ion", "assay_type": "functional, cell-based"}, "HepG2 [37]": {"system": "HepG2", "assay": "Antiproliferative activity against human HepG2 cells at 2 uM after 96 hrs by MTT assay in presence of ferric ion", "assay_type": "functional, cell-based"}},
  "note": "Calls of active or inactive are those of the source. The calls are words filed in the database; no cut-off is given here.",
  "data": [
    {"smiles": "Cc1cc2c(cc(O)c1=O)[C@@]13CCCC(C)(C)[C@@H]1C[C@@H]2OC3", "note": "[MILTIPOLONE]", "values": [
      {"measurement": "Activity", "setting": "MCF7 [1]", "value": "inactive"},
      {"measurement": "Activity", "setting": "Jurkat [2]", "value": "inactive"},
      {"measurement": "Activity", "setting": "A-375 [3]", "value": "inactive"},
      {"measurement": "Activity", "setting": "NCI-N87 [4]", "value": "inactive"},
      {"measurement": "Activity", "setting": "PANC-1 [5]", "value": "inactive"},
      {"measurement": "Activity", "setting": "HT-1080 [6]", "value": "inactive"},
      {"measurement": "Activity", "setting": "HeLa [7]", "value": "inactive"},
      {"measurement": "Activity", "setting": "HepG2 [8]", "value": "inactive"},
      {"measurement": "Activity", "setting": "A549 [9]", "value": "inactive"},
      {"measurement": "IC50", "setting": "HUVEC", "value": 20, "unit": "µM"},
      {"measurement": "IC50", "setting": "A549 [10]", "value": 1.92, "unit": "µM"},
      {"measurement": "IC50", "setting": "Bel-7402 [11]", "value": 0.9, "unit": "µM"},
      {"measurement": "IC50", "setting": "HepG2 [12]", "value": 2, "unit": "µM"},
      {"measurement": "IC50", "setting": "HeLa [13]", "value": 1.44, "unit": "µM"},
      {"measurement": "IC50", "setting": "MCF7 [14]", "value": 2, "unit": "µM"},
      {"measurement": "IC50", "setting": "Jurkat [15]", "value": 1.4, "unit": "µM"},
      {"measurement": "IC50", "setting": "HT-1080 [16]", "value": 1.36, "unit": "µM"},
      {"measurement": "IC50", "setting": "A-375 [17]", "value": 3.5, "unit": "µM"},
      {"measurement": "IC50", "setting": "NCI-N87 [18]", "value": 1.6, "unit": "µM"},
      {"measurement": "IC50", "setting": "PANC-1 [19]", "value": 5.95, "unit": "µM"},
      {"measurement": "Activity", "setting": "[20]", "value": "Active"},
      {"measurement": "Activity", "setting": "[21]", "value": "Active"},
      {"measurement": "Activity", "setting": "[22]", "value": "Active"},
      {"measurement": "Activity", "setting": "[23]", "value": "Active"},
      {"measurement": "Activity", "setting": "[24]", "value": "Active"},
      {"measurement": "Activity", "setting": "A549 [25]", "value": "inactive"},
      {"measurement": "Activity", "setting": "Bel-7402 [26]", "value": "inactive"},
      {"measurement": "Activity", "setting": "HepG2 [27]", "value": "inactive"},
      {"measurement": "Activity", "setting": "HeLa [28]", "value": "inactive"},
      {"measurement": "Activity", "setting": "MCF7 [29]", "value": "inactive"},
      {"measurement": "Activity", "setting": "Jurkat [30]", "value": "inactive"},
      {"measurement": "Activity", "setting": "HT-1080 [31]", "value": "inactive"},
      {"measurement": "Activity", "setting": "A-375 [32]", "value": "inactive"},
      {"measurement": "Activity", "setting": "NCI-N87 [33]", "value": "inactive"},
      {"measurement": "Activity", "setting": "PANC-1 [34]", "value": "inactive"},
      {"measurement": "Activity", "setting": "A549 [35]", "value": "Active"},
      {"measurement": "Activity", "setting": "Bel-7402 [36]", "value": "Active"},
      {"measurement": "Activity", "setting": "HepG2 [37]", "value": "Active"}
    ]}
  ]
}
